Key:
Test in all cases: radiometric filter-binding kinase assay, Kinase HotSpot
Conditions in all cases: compound 0.5 µM; ATP 10 µM
GSK3A (human) = GSK3A (human) (UniProt P49840)
NEK4 (human) = NEK4 (human) (UniProt P51957)
CSNK1G1 (human) = CSNK1G1 (human) (UniProt Q9HCP0)
ACVRL1 (human) = ACVRL1 (human) (UniProt P37023)
SGK3 (human) = SGK3 (human) (UniProt Q96BR1)
PHKG1 (human) = PHKG1 (human) (UniProt Q16816)
PIM1 (human) = PIM1 (human) (UniProt P11309)
MATK (human) = MATK (human) (UniProt P42679)
MST1R (human) = MST1R (human) (UniProt Q04912)
FGFR2 (human) = FGFR2 (human) (UniProt P21802)
JAK2 JH1 JH2 (human) = JAK2 JH1 JH2 (human) (UniProt O60674)
MAP4K2 (human) = MAP4K2 (human) (UniProt Q12851)
CSNK1D (human) = CSNK1D (human) (UniProt P48730)
PIM3 (human) = PIM3 (human) (UniProt Q86V86)
TYRO3 (human) = TYRO3 (human) (UniProt Q06418)
MUSK (human) = MUSK (human) (UniProt O15146)
Sequence of MUSK (human) (O15146 whole entry, looked up): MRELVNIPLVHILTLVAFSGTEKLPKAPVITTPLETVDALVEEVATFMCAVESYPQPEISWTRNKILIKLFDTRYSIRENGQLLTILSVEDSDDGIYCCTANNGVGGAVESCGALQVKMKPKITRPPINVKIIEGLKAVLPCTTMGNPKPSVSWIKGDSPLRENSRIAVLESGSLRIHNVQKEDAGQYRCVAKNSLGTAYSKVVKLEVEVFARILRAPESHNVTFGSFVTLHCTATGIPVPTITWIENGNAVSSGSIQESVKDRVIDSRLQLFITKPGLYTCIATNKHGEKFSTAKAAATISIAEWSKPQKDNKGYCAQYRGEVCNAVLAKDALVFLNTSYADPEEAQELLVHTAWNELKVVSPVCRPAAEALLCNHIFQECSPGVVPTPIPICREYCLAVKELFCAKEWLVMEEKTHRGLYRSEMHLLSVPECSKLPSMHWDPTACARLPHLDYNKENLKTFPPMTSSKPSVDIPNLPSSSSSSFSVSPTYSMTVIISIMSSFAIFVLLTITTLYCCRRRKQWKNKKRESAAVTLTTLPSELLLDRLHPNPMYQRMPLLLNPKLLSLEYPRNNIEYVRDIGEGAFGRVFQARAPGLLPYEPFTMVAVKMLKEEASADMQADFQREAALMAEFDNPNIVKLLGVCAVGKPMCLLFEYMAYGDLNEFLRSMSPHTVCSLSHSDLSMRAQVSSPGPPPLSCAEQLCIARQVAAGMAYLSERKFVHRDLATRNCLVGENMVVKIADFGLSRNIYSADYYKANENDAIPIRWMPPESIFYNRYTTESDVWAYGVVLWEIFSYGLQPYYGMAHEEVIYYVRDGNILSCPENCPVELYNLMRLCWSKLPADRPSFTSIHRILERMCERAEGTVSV

EPHB3 (human) = EPHB3 (human) (UniProt P54753)
PLK2 (human) = PLK2 (human) (UniProt Q9NYY3)
TSSK2 (human) = TSSK2 (human) (UniProt Q96PF2)
EPHA1 (human) = EPHA1 (human) (UniProt P21709)
BTK (human) = BTK (human) (UniProt Q06187)
NUAK1 (human) = NUAK1 (human) (UniProt O60285)
Sequence of NUAK1 (human) (O60285 whole entry, looked up): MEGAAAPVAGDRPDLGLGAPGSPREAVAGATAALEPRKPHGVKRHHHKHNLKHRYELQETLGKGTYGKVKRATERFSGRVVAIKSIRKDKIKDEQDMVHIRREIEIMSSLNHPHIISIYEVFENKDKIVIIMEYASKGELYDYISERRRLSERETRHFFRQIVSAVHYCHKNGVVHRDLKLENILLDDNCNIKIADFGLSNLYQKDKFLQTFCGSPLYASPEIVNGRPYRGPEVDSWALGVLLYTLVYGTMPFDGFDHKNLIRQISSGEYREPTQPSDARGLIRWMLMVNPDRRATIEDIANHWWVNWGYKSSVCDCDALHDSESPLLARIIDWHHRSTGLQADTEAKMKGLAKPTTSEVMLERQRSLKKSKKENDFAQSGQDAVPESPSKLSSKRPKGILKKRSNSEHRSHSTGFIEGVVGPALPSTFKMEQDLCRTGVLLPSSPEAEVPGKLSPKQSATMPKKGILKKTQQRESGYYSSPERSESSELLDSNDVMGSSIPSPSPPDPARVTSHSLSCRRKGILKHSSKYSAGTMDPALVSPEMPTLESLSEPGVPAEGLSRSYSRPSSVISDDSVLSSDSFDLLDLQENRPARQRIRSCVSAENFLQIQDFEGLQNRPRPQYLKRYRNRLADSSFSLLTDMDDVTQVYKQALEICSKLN

PLK1 (human) = PLK1 (human) (UniProt P53350)
STK11 (human) = STK11 (human) (UniProt Q15831)
STK17A (human) = STK17A (human) (UniProt Q9UEE5)
WNK2 (human) = WNK2 (human) (UniProt Q9Y3S1)
MARK2 (human) = MARK2 (human) (UniProt Q7KZI7)
Sequence of MARK2 (human) (Q7KZI7 whole entry, looked up): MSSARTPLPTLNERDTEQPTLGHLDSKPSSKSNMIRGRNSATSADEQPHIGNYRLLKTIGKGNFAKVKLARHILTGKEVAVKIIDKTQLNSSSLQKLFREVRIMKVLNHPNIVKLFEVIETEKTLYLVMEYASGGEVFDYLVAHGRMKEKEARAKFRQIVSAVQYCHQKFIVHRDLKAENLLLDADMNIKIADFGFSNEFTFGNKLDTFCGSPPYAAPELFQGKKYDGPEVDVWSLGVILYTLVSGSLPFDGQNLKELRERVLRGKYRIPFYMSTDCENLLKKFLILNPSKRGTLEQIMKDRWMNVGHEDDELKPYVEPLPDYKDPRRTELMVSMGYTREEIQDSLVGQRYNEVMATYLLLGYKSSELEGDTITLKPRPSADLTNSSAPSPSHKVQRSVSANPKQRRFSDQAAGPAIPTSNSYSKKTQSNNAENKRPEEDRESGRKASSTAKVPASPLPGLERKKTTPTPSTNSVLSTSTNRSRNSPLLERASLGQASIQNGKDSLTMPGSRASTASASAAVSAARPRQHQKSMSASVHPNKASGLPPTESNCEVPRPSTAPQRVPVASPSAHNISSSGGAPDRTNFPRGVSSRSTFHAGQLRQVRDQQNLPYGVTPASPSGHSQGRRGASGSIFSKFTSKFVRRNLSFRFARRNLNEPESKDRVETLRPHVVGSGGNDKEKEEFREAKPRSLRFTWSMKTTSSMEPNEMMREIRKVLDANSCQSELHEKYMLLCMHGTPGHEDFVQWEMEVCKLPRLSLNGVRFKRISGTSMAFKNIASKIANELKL

NTRK2 (human) = NTRK2 (human) (UniProt Q16620)
MERTK (human) = MERTK (human) (UniProt Q12866)
PRKX (human) = PRKX (human) (UniProt P51817)
CAMK2A (human) = CAMK2A (human) (UniProt Q9UQM7)
Sequence of CAMK2A (human) (Q9UQM7 whole entry, looked up): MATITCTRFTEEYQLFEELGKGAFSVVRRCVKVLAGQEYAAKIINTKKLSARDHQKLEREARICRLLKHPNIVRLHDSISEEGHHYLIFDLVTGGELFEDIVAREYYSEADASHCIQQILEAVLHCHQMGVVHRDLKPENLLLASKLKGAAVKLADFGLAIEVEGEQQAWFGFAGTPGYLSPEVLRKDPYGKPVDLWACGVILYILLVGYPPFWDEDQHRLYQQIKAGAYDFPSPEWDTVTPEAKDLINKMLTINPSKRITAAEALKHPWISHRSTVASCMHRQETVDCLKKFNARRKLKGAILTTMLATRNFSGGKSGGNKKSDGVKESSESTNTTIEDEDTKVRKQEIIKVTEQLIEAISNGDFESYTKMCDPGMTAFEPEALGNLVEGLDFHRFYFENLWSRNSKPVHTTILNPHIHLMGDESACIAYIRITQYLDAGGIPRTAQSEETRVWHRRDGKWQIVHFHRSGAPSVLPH

NEK11 (human) = NEK11 (human) (UniProt Q8NG66)
HCK (human) = HCK (human) (UniProt P08631)
DYRK3 (human) = DYRK3 (human) (UniProt O43781)
Sequence of DYRK3 (human) (O43781 whole entry, looked up): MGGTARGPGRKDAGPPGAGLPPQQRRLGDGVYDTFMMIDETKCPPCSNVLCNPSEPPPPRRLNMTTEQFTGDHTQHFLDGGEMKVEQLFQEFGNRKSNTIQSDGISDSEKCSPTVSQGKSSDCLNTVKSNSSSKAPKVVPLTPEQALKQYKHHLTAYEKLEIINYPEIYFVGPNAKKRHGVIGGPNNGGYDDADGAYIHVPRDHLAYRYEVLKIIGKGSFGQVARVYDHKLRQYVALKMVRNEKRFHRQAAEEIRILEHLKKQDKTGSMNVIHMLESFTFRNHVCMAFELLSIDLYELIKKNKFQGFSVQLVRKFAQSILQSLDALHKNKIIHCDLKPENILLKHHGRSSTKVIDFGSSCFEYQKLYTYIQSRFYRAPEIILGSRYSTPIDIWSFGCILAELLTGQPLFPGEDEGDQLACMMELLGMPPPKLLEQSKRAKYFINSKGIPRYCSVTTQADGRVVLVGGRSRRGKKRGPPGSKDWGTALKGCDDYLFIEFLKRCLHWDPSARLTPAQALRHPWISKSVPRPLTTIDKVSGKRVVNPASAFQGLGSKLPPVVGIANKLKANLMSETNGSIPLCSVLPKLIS

CLK3 (human) = CLK3 (human) (UniProt P49761)
Sequence of CLK3 (human) (P49761 whole entry, looked up): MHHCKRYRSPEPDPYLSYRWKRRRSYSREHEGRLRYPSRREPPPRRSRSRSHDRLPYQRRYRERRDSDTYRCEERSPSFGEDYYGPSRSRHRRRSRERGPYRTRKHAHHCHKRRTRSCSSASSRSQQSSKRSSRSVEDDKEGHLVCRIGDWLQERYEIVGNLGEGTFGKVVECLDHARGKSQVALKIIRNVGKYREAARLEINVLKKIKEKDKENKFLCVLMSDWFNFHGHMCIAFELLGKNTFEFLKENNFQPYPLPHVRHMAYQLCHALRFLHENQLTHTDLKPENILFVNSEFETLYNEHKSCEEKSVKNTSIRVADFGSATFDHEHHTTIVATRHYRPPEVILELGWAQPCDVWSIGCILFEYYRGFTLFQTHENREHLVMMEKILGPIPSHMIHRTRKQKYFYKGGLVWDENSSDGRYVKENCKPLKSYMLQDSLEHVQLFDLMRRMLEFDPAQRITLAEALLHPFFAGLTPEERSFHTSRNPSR

MAP3K3 (human) = MAP3K3 (human) (UniProt Q99759)
EPHA8 (human) = EPHA8 (human) (UniProt P29322)
SIK2 (human) = SIK2 (human) (UniProt Q9H0K1)
CSNK1G3 (human) = CSNK1G3 (human) (UniProt Q9Y6M4)
Sequence of CSNK1G3 (human) (Q9Y6M4 whole entry, looked up): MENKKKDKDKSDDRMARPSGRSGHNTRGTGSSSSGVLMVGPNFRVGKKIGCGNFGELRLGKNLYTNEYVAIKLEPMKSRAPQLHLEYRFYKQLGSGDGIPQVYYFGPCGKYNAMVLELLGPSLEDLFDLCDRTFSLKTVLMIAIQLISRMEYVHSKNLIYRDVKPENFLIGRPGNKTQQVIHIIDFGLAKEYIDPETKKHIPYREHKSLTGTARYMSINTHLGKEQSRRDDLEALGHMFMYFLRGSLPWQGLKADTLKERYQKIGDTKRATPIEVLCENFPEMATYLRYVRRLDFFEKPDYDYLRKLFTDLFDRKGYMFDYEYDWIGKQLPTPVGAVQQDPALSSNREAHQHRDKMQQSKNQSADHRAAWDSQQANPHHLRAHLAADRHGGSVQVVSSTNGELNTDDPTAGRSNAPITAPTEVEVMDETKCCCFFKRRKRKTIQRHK

DDR2 (human) = DDR2 (human) (UniProt Q16832)
CSNK1E (human) = CSNK1E (human) (UniProt P49674)
FGFR3 (human) = FGFR3 (human) (UniProt P22607)

Sequence of PHKG1 (human) (Q16816 whole entry, looked up): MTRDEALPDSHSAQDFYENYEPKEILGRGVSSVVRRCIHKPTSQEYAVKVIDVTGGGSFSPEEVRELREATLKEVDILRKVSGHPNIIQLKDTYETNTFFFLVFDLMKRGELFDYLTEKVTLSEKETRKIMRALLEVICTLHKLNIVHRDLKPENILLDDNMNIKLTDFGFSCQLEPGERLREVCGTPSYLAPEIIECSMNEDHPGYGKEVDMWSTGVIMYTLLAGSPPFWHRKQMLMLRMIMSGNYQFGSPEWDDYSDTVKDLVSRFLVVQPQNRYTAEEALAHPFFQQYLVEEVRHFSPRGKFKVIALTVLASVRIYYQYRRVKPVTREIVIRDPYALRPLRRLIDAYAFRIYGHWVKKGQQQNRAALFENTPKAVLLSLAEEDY
Sequence of PIM1 (human) (P11309 whole entry, looked up): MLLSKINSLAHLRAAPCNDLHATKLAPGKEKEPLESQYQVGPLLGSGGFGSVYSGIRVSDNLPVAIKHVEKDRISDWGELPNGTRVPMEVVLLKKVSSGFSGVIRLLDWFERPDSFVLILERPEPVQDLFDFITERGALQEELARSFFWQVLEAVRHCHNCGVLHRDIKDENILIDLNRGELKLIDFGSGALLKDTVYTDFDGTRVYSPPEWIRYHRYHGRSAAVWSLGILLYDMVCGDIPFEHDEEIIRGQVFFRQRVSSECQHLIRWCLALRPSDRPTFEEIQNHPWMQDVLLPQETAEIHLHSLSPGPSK

CC#CC(=O)Nc1cc2c(Nc3ccc(F)c(Cl)c3)ncnc2cn1
residual activity (GSK3A (human)): 104% | residual activity (NEK4 (human)): 85.8% | residual activity (CSNK1G1 (human)): 95.5% | residual activity (ACVRL1 (human)): 101% | residual activity (SGK3 (human)): 100% | residual activity (PHKG1 (human)): 103% | residual activity (PIM1 (human)): 98.6% | residual activity (MATK (human)): 95.8% | residual activity (MST1R (human)): 104% | residual activity (FGFR2 (human)): 101% | residual activity (JAK2 JH1 JH2 (human)): 97.4% | residual activity (MAP4K2 (human)): 114% | residual activity (CSNK1D (human)): 99.3% | residual activity (PIM3 (human)): 89.1% | residual activity (TYRO3 (human)): 100% | residual activity (MUSK (human)): 79.6% | residual activity (EPHB3 (human)): 85.4% | residual activity (PLK2 (human)): 103% | residual activity (TSSK2 (human)): 100% | residual activity (EPHA1 (human)): 88.3% | residual activity (BTK (human)): 2.88% | residual activity (NUAK1 (human)): 98.1% | residual activity (PLK1 (human)): 99.3% | residual activity (STK11 (human)): 99.6% | residual activity (STK17A (human)): 92.9% | residual activity (WNK2 (human)): 107% | residual activity (MARK2 (human)): 105% | residual activity (NTRK2 (human)): 100% | residual activity (MERTK (human)): 84.5% | residual activity (PRKX (human)): 103% | residual activity (CAMK2A (human)): 108% | residual activity (NEK11 (human)): 86.6% | residual activity (HCK (human)): 92.2% | residual activity (DYRK3 (human)): 101% | residual activity (CLK3 (human)): 47.1% | residual activity (MAP3K3 (human)): 107% | residual activity (EPHA8 (human)): 100% | residual activity (SIK2 (human)): 81.3% | residual activity (CSNK1G3 (human)): 111% | residual activity (DDR2 (human)): 108% | residual activity (CSNK1E (human)): 93.6% | residual activity (FGFR3 (human)): 108%

CNC(=O)c1cc(Oc2ccc(NC(=O)Nc3ccc(Cl)c(C(F)(F)F)c3)cc2)ccn1
residual activity (GSK3A (human)): 103% | residual activity (NEK4 (human)): 99.5% | residual activity (CSNK1G1 (human)): 102% | residual activity (ACVRL1 (human)): 104% | residual activity (SGK3 (human)): 101% | residual activity (PHKG1 (human)): 94.3% | residual activity (PIM1 (human)): 97.1% | residual activity (MATK (human)): 114% | residual activity (MST1R (human)): 97.6% | residual activity (FGFR2 (human)): 72.7% | residual activity (JAK2 JH1 JH2 (human)): 98.2% | residual activity (MAP4K2 (human)): 108% | residual activity (CSNK1D (human)): 103% | residual activity (PIM3 (human)): 100% | residual activity (TYRO3 (human)): 91.7% | residual activity (MUSK (human)): 101% | residual activity (EPHB3 (human)): 95.5% | residual activity (PLK2 (human)): 101% | residual activity (TSSK2 (human)): 102% | residual activity (EPHA1 (human)): 87.7% | residual activity (BTK (human)): 102% | residual activity (NUAK1 (human)): 103% | residual activity (PLK1 (human)): 98.1% | residual activity (STK11 (human)): 104% | residual activity (STK17A (human)): 96% | residual activity (WNK2 (human)): 101% | residual activity (MARK2 (human)): 94.9% | residual activity (NTRK2 (human)): 90% | residual activity (MERTK (human)): 88.2% | residual activity (PRKX (human)): 97.7% | residual activity (CAMK2A (human)): 95.3% | residual activity (NEK11 (human)): 105% | residual activity (HCK (human)): 90.3% | residual activity (DYRK3 (human)): 92.7% | residual activity (CLK3 (human)): 99.3% | residual activity (MAP3K3 (human)): 107% | residual activity (EPHA8 (human)): 94.5% | residual activity (SIK2 (human)): 102% | residual activity (CSNK1G3 (human)): 99.8% | residual activity (DDR2 (human)): 3.41% | residual activity (CSNK1E (human)): 95.9% | residual activity (FGFR3 (human)): 89.5%

O=C1NC(=O)C(c2cn(CCCn3ccnc3)c3ccccc23)=C1Nc1ccccc1
residual activity (GSK3A (human)): 10.6% | residual activity (NEK4 (human)): 94.9% | residual activity (CSNK1G1 (human)): 95% | residual activity (ACVRL1 (human)): 95.9% | residual activity (SGK3 (human)): 89.9% | residual activity (PHKG1 (human)): 64.6% | residual activity (PIM1 (human)): 79.1% | residual activity (MATK (human)): 89.8% | residual activity (MST1R (human)): 93.5% | residual activity (FGFR2 (human)): 103% | residual activity (JAK2 JH1 JH2 (human)): 84.3% | residual activity (MAP4K2 (human)): 85.7% | residual activity (CSNK1D (human)): 102% | residual activity (PIM3 (human)): 97.5% | residual activity (TYRO3 (human)): 99.6% | residual activity (MUSK (human)): 51.6% | residual activity (EPHB3 (human)): 99.7% | residual activity (PLK2 (human)): 101% | residual activity (TSSK2 (human)): 97.9% | residual activity (EPHA1 (human)): 101% | residual activity (BTK (human)): 105% | residual activity (NUAK1 (human)): 70.6% | residual activity (PLK1 (human)): 99.5% | residual activity (STK11 (human)): 89.9% | residual activity (STK17A (human)): 93.1% | residual activity (WNK2 (human)): 99.8% | residual activity (MARK2 (human)): 97.1% | residual activity (NTRK2 (human)): 85.8% | residual activity (MERTK (human)): 86.1% | residual activity (PRKX (human)): 95.5% | residual activity (CAMK2A (human)): 95.5% | residual activity (NEK11 (human)): 75.6% | residual activity (HCK (human)): 97.9% | residual activity (DYRK3 (human)): 103% | residual activity (CLK3 (human)): 93.9% | residual activity (MAP3K3 (human)): 95.8% | residual activity (EPHA8 (human)): 104% | residual activity (SIK2 (human)): 90.3% | residual activity (CSNK1G3 (human)): 110% | residual activity (DDR2 (human)): 95.6% | residual activity (CSNK1E (human)): 96.7% | residual activity (FGFR3 (human)): 100%

Nc1cccc(-c2cc3c(Oc4cccc(O)c4)ncnc3[nH]2)c1
residual activity (GSK3A (human)): 41.6% | residual activity (NEK4 (human)): 91.4% | residual activity (CSNK1G1 (human)): 102% | residual activity (ACVRL1 (human)): 70.3% | residual activity (SGK3 (human)): 117% | residual activity (PHKG1 (human)): 81.5% | residual activity (PIM1 (human)): 85.9% | residual activity (MATK (human)): 97.8% | residual activity (MST1R (human)): 103% | residual activity (FGFR2 (human)): 46.1% | residual activity (JAK2 JH1 JH2 (human)): 85.4% | residual activity (MAP4K2 (human)): 55.5% | residual activity (CSNK1D (human)): 96.8% | residual activity (PIM3 (human)): 129% | residual activity (TYRO3 (human)): 52.1% | residual activity (MUSK (human)): 62.8% | residual activity (EPHB3 (human)): 78.8% | residual activity (PLK2 (human)): 106% | residual activity (TSSK2 (human)): 95.6% | residual activity (EPHA1 (human)): 31.2% | residual activity (BTK (human)): 33.6% | residual activity (NUAK1 (human)): 37% | residual activity (PLK1 (human)): 104% | residual activity (STK11 (human)): 12.4% | residual activity (STK17A (human)): 93.7% | residual activity (WNK2 (human)): 103% | residual activity (MARK2 (human)): 79% | residual activity (NTRK2 (human)): 95.5% | residual activity (MERTK (human)): 63.8% | residual activity (PRKX (human)): 114% | residual activity (CAMK2A (human)): 115% | residual activity (NEK11 (human)): 89.6% | residual activity (HCK (human)): 6.65% | residual activity (DYRK3 (human)): 89.8% | residual activity (CLK3 (human)): 74% | residual activity (MAP3K3 (human)): 96.4% | residual activity (EPHA8 (human)): 57.5% | residual activity (SIK2 (human)): 69.4% | residual activity (CSNK1G3 (human)): 92.6% | residual activity (DDR2 (human)): 29.3% | residual activity (CSNK1E (human)): 92.9% | residual activity (FGFR3 (human)): 67.9%

Source: the kinase profiling compilation of Christmann-Franck et al. (2016)
